Data set [1] is described as follows: Relative lipophilicity of camptothecin drugs. The conditions noted are these: among drugs of Table V.
Data set [2] is described as follows: Excited-state lifetime of camptothecin. The format is physicochemical. The conditions noted are these: for excited state-lifetime: 37° C. Here is the method:
The excited state-lifetime values of camptothecin free in solution was measured in PBS, glycerol, and methanol at 37° C. The lifetime values are 4.7 ns, 3.8 ns, and 3.5 ns, respectively. The average excited state-lifetime value of camptothecin when bound to DMPC liposome membrane is 3.7 ns. The measurements indicate that the excited-state lifetime of camptothecin is relatively insensitive to changes in solvent environment or to changes due to relocation of camptothecin from an aqueous environment to the lipid liposome membrane.
The picosecond fluorescence experiment were carried out with a Piridine I cavity dumped dye laser and frequency doubled light […]. The lifetime and correlation time were measured using frequency domain fluorometer operating up 10 GHz (Laczko et al., Rev. Sci. Instrum. 61: 2331, (1990)). The modulated exited light was obtained from the harmonic content of a laser pulse train with a repetition rate of 3.81 MHz and a pulse width of 5 ps. A mode locked […] Antares laser was used to pump the dye laser. The emission was observed through the cut of the filter […] by microchannel photomultiplier. The cross-correlation detection was done outside the photomultiplier tube, according to Laczko et al., Rev, Sci. Instrum. 61: 2331 (1990).

Data set [3] can be described thus: Overall association constant by fluorescence anisotropy titration, DMPC liposomes. The conditions noted are these: 2 mM drug, 0.29M DMPC. In kind it is physicochemical.

Take `CCC1(O)C(=O)OCc2c1cc1n(c2=O)Cc2cc3c(Cl)c4c(cc3nc2-1)OCO4` (stereo not drawn) [9-chloro-10,11-methylenedioxycamptothecin]: the relative lipophilicity result in data set [1] was “most lipophilic”.
`CC[C@@]1(O)C(=O)OCc2c1cc1n(c2=O)Cc2cc3ccccc3nc2-1` [camptothecin]: the excited state-lifetime in data set [2] (PBS) amounted to 4.7 ns; in data set [2] (glycerol), 3.8 ns; in data set [2] (methanol) it was 3.5 ns. The same compound yielded an average excited state-lifetime in data set [2] (bound to DMPC liposome membrane) of 3.7 ns. Besides, the “bound camptothecin level at raised drug concentration” value in data set [3] is 97%.

Values taken from patent US5552156A, “Liposomal and micellular stabilization of camptothecin drugs” (Ohio State University, priority 1995, dated 1996).
